These results are taken from patent US20260008775A1, “AZOLE MODULATORS OF CHOLESTEROL BIOSYNTHESIS AND THEIR USE FOR PROMOTING REMYELINATION” (GENENTECH, INC., priority 2022, published 2026).

For orientation: EC50 means the concentration that produces a half-maximal response. What is called Ki is the equilibrium dissociation constant of an inhibitor or competing ligand from its target.

The test system of experiment [1] is zymostenol accumulation (EBP) in EpiSC-derived OPCs. In words: GC/MS-based sterol profiling, zymostenol accumulation in EpiSC-derived OPCs. The experiment is classed as cell-based, mouse. To be noted: Mus musculus, 24 h, EpiSC-derived OPCs, 24 hr, 8 doses from 0.15 nM to 333 nM; read-out: Mouse Zymostenol GCMS EC50. The procedure: To assess effects of treatments on OPCs, all treatments were assayed in two or more independent platings of epiblast stem cell-derived OPCs (EpiSC). EpiSC-derived OPCs were obtained using in vitro differentiation protocols and culture conditions described previously (Najm et al, 2011, Nature Methods). OPCs were expanded and frozen down in aliquots. OPCs were thawed into growth conditions for at least one passage before use in further assays.
Sterols were monitored using a modified Folch wash protocol (Hubler et al, 2018, Nature). EpiSC-derived OPCs were plated at 100,000 cells per well in PO- and laminin-coated 96-well plates in N2B27 media without growth factors. After 24 hours, cells were rinsed with saline and plates were frozen. Cholesterol-d7 standard was then added to each well before drying under nitrogen stream and derivatization with 55 μl of bis(trimethylsilyl) trifluoroacetamide. After derivatization, 2 μl were analyzed by gas chromatography/mass spectrometry using an Agilent 5973 Network Mass Selective Detector equipped with a 6890 gas chromatograph system and a HP-5MS capillary column (30 m×0.25 mm×[…]). Samples were analyzed in full scan mode using electron impact ionization; ion fragment peaks were integrated to calculate sterol abundance, and quantitation was relative to cholesterol-d7. The following ion fragments were used to quantitate each metabolite: cholesterol-d7 (465), FF-Mas (482), cholesterol (368), zymostenol (458), zymosterol (456), Desmosterol (456, 343), 7-dehydrocholesterol (456, 325), lanosterol (393), lathosterol (458), 14-dehydrozymostenol (456, 351). […] All standards were obtained from Avanti Polar Lipids unless otherwise indicated. Calibration curves were generated by injecting varying concentrations of sterol standards and maintaining a fixed amount of cholesterol-D7. For normalized zymostenol accumulation results, the total amount of zymostenol measured after drug treatment was divided by the total amount of zymostenol accumulated after 24 hr treatment with 100 nM positive control reference.

The target of experiment [2] is human emopamil binding protein and human 7-dehydrocholesterol reductase (hEBP-DHCR7) (Homo sapiens (Human), UniProt Q15125). In words: hEBP-DHCR7 radioligand binding assay (filter binding, membranes of co-expressing HEK293 cells). Particulars: competition with [3H] radioligand, 8 doses 0.06 to 5000 nM, Ki calculated from IC50. The protocol:
Membrane Preparation: human emopamil binding protein and human 7-dehydrocholesterol reductase co-expressing cells were generated by transient transfecting host human embryonic kidney (HEK) 293 cells with 2 DNA constructs containing each protein's coding sequence. Cells were suspension cultured at 37° C. with 5% CO2 in […] 293 Expression Medium (Thermofisher). Whole cell membrane was prepared by harvesting the cell pellet, adding cold membrane buffer (50 mM Tris, pH7.5, 1× Roche COMPLETE EDTA-free protease inhibitor cocktail) 10 times volume of the cell pellets weight, lysing cell pellet on ice by using Dounce homogenizer, spinning at 200 g 4° C. for 15 min, collecting supernatant and spinning again at 25000 g 4° C. for 50 min, transferring pellet to Dounce homogenizer, re-suspending pellet by homogenizing in membrane buffer on ice to reach ˜25 mg/mL, then keeping whole cell membrane aliquots at −80° C.
Compounds were prepared in a 96-well U bottom plate (Corning Cat #7007) using an Echo550 machine and 10 mM compound DMSO stock solution, followed by an 8-dose 5-fold serial dilutions protocol with final testing compound concentration ranging from 0.06 to 5000 nM, with DMSO back fill to 100 nL/well and n=2. […] The UniFilter-96 GF/B plates (PerkinElmer Cat #6005177) were pre-treated by adding 50 μl/well of 0.3% (v/v) Polyethylenimine (PEI) (branched, Sigma Cat #408727) to UniFilter-96 GF/B plates. The plates were sealed and incubated at 4° C. for 3 hrs. Then, the plates were washed with ice-cold assay buffer 3 times. The radioligand binding assay was prepared by adding assay buffer diluted hEBP-DHCR7 membrane at 66.7 µg/ml×150 μl/well into the 96-well compound plate to reach 10 μg membrane per well. Then, the assay buffer diluted [3H]—(S)-6-(2-Methyl-3-(6-(trifluoromethyl)pyridin-3-yl)propyl)-2-thia-6-azaspiro[3.4]octane 2,2-dioxide (Moravek, Cat #MT-1003106) was added at 25 nM×50 μl/well. Following this, the plate was centrifuged at 1000 rpm for 30 secs. The plate was then sealed and agitated at 600 rpm at 22° C. for 5 min, and then incubated at 22° C. for 3 hrs. The incubation was stopped by transferring the binding solution to the pre-treated UniFilter-96 GF/B plate, vacuum filtrated, and then washed four times with ice-cold assay buffer. Following this, the plates were dried at 37° C. for 45 min. The plates were then sealed at the bottom. 40 µl/well of scintillation cocktail was added to the plates. A MicroBeta2 microplate counter was then used to read the plate and analyze the data. For reference and test compounds, the results are expressed as % Inhibition, using the normalization equation: N=100−100×(U−C2)/(C1−C2), where U is the unknown value, C1 is the average of high controls, and C2 is the average value of low controls.

Where only a bound is given, the exact number is not on record here.

Chain of human emopamil binding protein and human 7-dehydrocholesterol reductase (hEBP-DHCR7) (Q15125 whole entry): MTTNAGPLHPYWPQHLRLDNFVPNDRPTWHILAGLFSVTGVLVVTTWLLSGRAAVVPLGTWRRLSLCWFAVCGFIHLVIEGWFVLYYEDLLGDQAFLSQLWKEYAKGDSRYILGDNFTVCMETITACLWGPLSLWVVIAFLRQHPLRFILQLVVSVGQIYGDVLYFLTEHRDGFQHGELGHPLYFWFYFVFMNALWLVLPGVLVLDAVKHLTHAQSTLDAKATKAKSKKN

In the case of `CC(C)n1nc(-c2cc(C(F)(F)F)ccn2)nc1[C@@H]1CC[C@@H](N2CCOCC2)C1` (single isomer, unassigned) [27*], the EC50 in experiment [1] was 141 nM.

Turning to `CC(C)n1nc(-c2cncc(C(F)(F)F)c2)cc1[C@H]1[C@@H]2CC(N3CCOC[C@@H]3C)C[C@@H]21` (single isomer, unassigned) [43*], the Ki in experiment [2] is 65 nM. In experiment [1], the EC50 stood at 243 nM.

Take `CC(C)n1nc(-c2cncc(C(F)(F)F)c2)cc1[C@H]1[C@@H]2CC(N3CCOC[C@H]3C)C[C@@H]21` (single isomer, unassigned) [44*]: in experiment [2], the Ki is 65 nM. For the same molecule, the EC50 in experiment [1] was 62 nM.

As to `CC(C)n1nc(-c2cncc(C(F)(F)F)c2)cc1[C@@H]1CC[C@@H](N2CCOCC2)C1` (single isomer, unassigned) [59*], in experiment [2], the Ki was 73.4 nM. Also, the EC50 in experiment [1] was determined as 19.2 nM.

In the case of `CC(C)n1nc(-c2cncc(C(F)(F)F)c2)cc1[C@H]1CC[C@@H](N2CCCOCC2)C1` (single isomer, unassigned) [64*], the Ki in experiment [2] is 15.6 nM. The EC50 in experiment [1] is 2.75 nM.

`CC(C)n1nc(-c2cccc(C(F)(F)F)n2)nc1[C@H]1CC[C@H](N2CCOC[C@@H]2C)CC1` (single isomer, unassigned) [78*]: in experiment [1], the EC50 was more than 333 nM.

Consider `CC(C)n1nc(-c2cccc(C(F)(F)F)n2)nc1[C@H]1CC[C@@H](N2CCOC[C@@H]2C)CC1` (single isomer, unassigned) [79*], for which the EC50 in experiment [1] worked out at 23.1 nM.

`CC(C)n1nc(-c2cccc(C(F)(F)F)n2)nc1[C@H]1CC[C@H](N2CCOC[C@H]2C)CC1` (single isomer, unassigned) [80*]: the Ki in experiment [2] was 528 nM. Also, in experiment [1], the EC50 is 112 nM.

As for `CC(C)n1nc(-c2cccc(C(F)(F)F)n2)nc1[C@H]1CC[C@@H](N2CCOC[C@H]2C)CC1` (single isomer, unassigned) [81*], in experiment [1], the EC50 was found to be 27.3 nM.

As for `CC(C)n1nc(-c2ccc(C(F)(F)F)nc2)cc1[C@@H]1CC[C@@H](N2CCN(CCO)CC2)C1` (single isomer, unassigned) [86*], the inhibition constant (Ki) in experiment [2] is 31.2 nM. Also, the 50% effective concentration (EC50) in experiment [1] turned out to be 28.7 nM.

On to `CC(C)n1nc(-c2ccc(C(F)(F)F)nc2)cc1[C@H]1CC[C@H](N2CCN(CCO)CC2)C1` (single isomer, unassigned) [88*], for which, in experiment [2], the Ki was 88.2 nM. In addition, the EC50 in experiment [1] stood at 627 nM.

Turning to `CC(C)n1nc(-c2ccc(C(F)(F)F)nc2)cc1[C@H]1CC[C@@H](N2CCN(CCO)CC2)C1` (single isomer, unassigned) [89*], the Ki in experiment [2] was 42.4 nM. The EC50 in experiment [1] amounted to 21.9 nM.

As to `COCCN1CCN([C@@H]2CC[C@@H](c3cc(-c4ccc(C(F)(F)F)nc4)nn3C(C)C)C2)CC1` (single isomer, unassigned) [90*], the Ki in experiment [2] was 11 nM. The EC50 in experiment [1] came to 33.7 nM.

Regarding `COCCN1CCN([C@H]2CC[C@H](c3cc(-c4ccc(C(F)(F)F)nc4)nn3C(C)C)C2)CC1` (single isomer, unassigned) [92*], the Ki in experiment [2] was 77.6 nM. The EC50 in experiment [1] was 252 nM.

Take `CC(C)n1nc(-c2cncc(C(F)(F)F)c2)nc1[C@@H]1CC[C@@H](N2CCOCC2)C1` (single isomer, unassigned) [Compound 115*]: the Ki in experiment [2] is 35 nM. For the same molecule, in experiment [1], the half-maximal effective concentration (EC50) came to 97.2 nM.

As for `CC(C)n1nc(-c2cncc(C(F)(F)F)c2)nc1[C@H]1CC[C@H](N2CCOCC2)C1` (single isomer, unassigned) [Compound 116*], in experiment [2], the Ki was 169 nM. The EC50 in experiment [1] was 49 nM.

Consider `CC(C)n1nc(-c2cncc(C(F)(F)F)c2)nc1[C@@H]1CC[C@H](N2CCOCC2)C1` (single isomer, unassigned) [Compound 117*], for which the Ki in experiment [2] is 34.6 nM. Also, the half-maximal effective concentration (EC50) in experiment [1] came to 13.5 nM.

Take `CC(C)n1nc(-c2cnc(C(F)(F)F)nc2)cc1[C@H]1CC[C@H](N2CCO[C@@H](CF)C2)C1` (single isomer, unassigned) [Compound 130*]: the inhibition constant Ki in experiment [2] was 392 nM. Moreover, in experiment [1], the EC50 stood at 619 nM.

For `CC(C)n1nc(-c2cnc(C(F)(F)F)nc2)cc1[C@H]1CC[C@@H](N2CCO[C@@H](CF)C2)C1` (single isomer, unassigned) [Compound 131*], in experiment [2], the Ki is 106 nM. In addition, the EC50 in experiment [1] turned out to be 168 nM.

Take `CC(C)n1nc(-c2cnc(C(F)(F)F)nc2)cc1[C@H]1CC[C@H](N2CCO[C@H](CF)C2)C1` (single isomer, unassigned) [Compound 132*]: the Ki in experiment [2] was 88 nM. For the same molecule, in experiment [1], the EC50 was determined as 352 nM.

Turning to `CC(C)n1nc(-c2cnc(F)c(C(F)(F)F)c2)nc1[C@@H]1CC[C@H](N2CCOCC2)C1` (single isomer, unassigned) [Compound 157*], the inhibitory constant (Ki) in experiment [2] was 51 nM. In experiment [1], the EC50 came to 59.2 nM.

Take `CC(C)n1nc(-c2cnc(F)c(C(F)(F)F)c2)nc1[C@H]1CC[C@@H](N2CCOCC2)C1` (single isomer, unassigned) [Compound 158*]: the Ki in experiment [2] is 33.8 nM. The EC50 in experiment [1] is 5.38 nM.

With `CC(C)n1nc(-c2cnc(F)c(C(F)(F)F)c2)nc1[C@H]1CC[C@H](N2CCOCC2)C1` (single isomer, unassigned) [Compound 159*], the Ki in experiment [2] was 12.2 nM. Besides, the EC50 in experiment [1] came to 4.25 nM.

For the molecule `CC(C)n1nc([C@H]2CC[C@H](C(F)(F)F)CC2)nc1[C@H]1[C@@H]2C[C@H](N3CCOC[C@H]3C)C[C@@H]21` (single isomer, unassigned) [Compound 164*], in experiment [2], the inhibitory constant (Ki) was 1640 nM. For the same molecule, the EC50 in experiment [1] came out at 143 nM.

As for `CC(C)n1nc(-c2ccc(C(F)(F)F)nc2)nc1[C@H]1CC[C@H](N2CCO[C@H](CF)C2)C1` (single isomer, unassigned) [Compound 168], in experiment [2], the Ki is 388 nM. The EC50 in experiment [1] is 229 nM.

Regarding `CC(C)n1nc(-c2ccc(C(F)(F)F)nc2)nc1[C@@H]1CC[C@@H](N2CCCOCC2)C1` [Compound 3, 4-((1R,3R)-3-(1-isopropyl-3-(6-(trifluoromethyl)pyridin-3-yl)-1H-1,2,4-triazol-5-yl)cyclopentyl)-1,4-oxazepane], the Ki in experiment [2] was 32.4 nM. In experiment [1], the EC50 is 39.5 nM.

Regarding `CC(C)n1nc(-c2cccc(OC(F)F)c2)nc1[C@H]1[C@@H]2C[C@@H](N3CCCOCC3)C[C@@H]21` [Compound 74, 4-((1R,3s,5S,6r)-6-(3-(3-(Difluoromethoxy)phenyl)-1-isopropyl-1H-1,2,4-triazol-5-yl)bicyclo[3.1.0]hexan-3-yl)-1,4-oxazepane], in experiment [2], the Ki is 37 nM. In experiment [1], the concentration for a half-maximal effect (EC50) was 168 nM.

Take `CC(C)n1nc(-c2cccc(OC(F)F)c2)nc1[C@H]1[C@@H]2C[C@H](N3CCCOCC3)C[C@@H]21` [Compound 75, 4-((1R,3r,5S,6r)-6-(3-(3-(Difluoromethoxy)phenyl)-1-isopropyl-1H-1,2,4-triazol-5-yl)bicyclo[3.1.0]hexan-3-yl)-1,4-oxazepane]: the Ki in experiment [2] was 12 nM. The EC50 in experiment [1] was found to be 2.83 nM.
